In article PMC9138683, “Decoding the Role of Melatonin Structure on Plasmodium falciparum Human Malaria Parasites Synchronization Using 2-Sulfenylindoles Derivatives” (Biomolecules, 2022):
“Also recorded” adds a separate entry of the source. Read-outs that look alike come from different tables or passages of the source.

Assays:
[1] = system: P. falciparum 3D7 parasites; assay: Effects of indole derivatives (500 nM) on parasitemia; format: cell-based, Plasmodium falciparum; conditions: for effect on parasitemia (in words): 500 nM compound alone, 3D7 asynchronous, 48 h; for increase in parasitemia / decrease in parasitemia: 500 nM compound; for increase in parasitemia / activity at 0.5 µM / decrease in parasitemia: 3D7, 48 h; for increase in parasitemia: compared to DMSO control (100.6%); for activity at 0.5 µM: Plasmodium falciparum, normalized to DMSO control, read-out: Parasitemia (%) Treatment with compound (500nM); for decrease in parasitemia: compared to DMSO control
Procedure: (§1) To evaluate the role of the compounds in parasitemia, 1% 3D7 parasites in 2% hematocrit were incubated for 48 h with 500 nM of the 2-sulfenylindole derivatives. Melatonin (100 nM) was used as a positive control, and DMSO (0.0013% v/v) was used as a negative control. The concentration of DMSO chosen as control was the concentration present in the tested compounds at 500 nM. The activity of the compounds was measured by SG-I and MT-Red staining. The data obtained were normalized to those of the control (DMSO). Additionally, to test the ability of the compounds to affect melatonin activity in parasitemia, 3D7 parasites were incubated with 500 nM indole compounds along with 100 nM melatonin for 48 h.
After incubation, the final parasitemia was determined using flow cytometry.

[2] = system: P. falciparum 3D7 parasites; assay: Effect of 2-sulfenylindoles in combination with 100 nM melatonin on parasitemia; format: cell-based, Plasmodium falciparum; conditions: 3D7, 48 h; for Parasitemia (%) Treatment with compound (500nM) + Melatonin (100nM): normalized to DMSO control
Procedure: as §1
Following the assumption that compounds resembling melatonin structure might interact through the melatonin signaling pathways, we evaluated the effect of the compounds on melatonin action on parasitemia. Our next step was to study the combination of 2-sulfenylindoles with melatonin in asynchronous 3D7 by incubating parasites simultaneously with 100 nM melatonin and 500 nM of each compound.

[3] = system: Plasmodium falciparum 3D7 (chloroquine-sensitive); assay: In vitro drug susceptibility assay, 3D7 strain (flow cytometry, SYBR Green I / MitoTracker Deep Red); format: cell-based; conditions: read-out: IC50 ± SD Pf3D7
Procedure: (§2) The cultures were maintained under an atmosphere of 5% CO2, 5% O2, and 90% N2. Fresh complete medium was provided daily, and rapid-stained (Panotico) blood smears were examined.
(§3) To evaluate the effects of synthetic compounds on the intraerythrocytic development of P. falciparum, we analyzed parasitemia by flow cytometry with 0.3% initial parasitemia and 1% hematocrit in the assay. Plates were incubated with the compounds at concentrations ranging from 0.10 to 100 µM for 72 h. Dual staining with SYBR Green I (SG-I) (Invitrogen, Waltham, MA, USA) and MitoTracker Deep Red (MT-Red) (Invitrogen) were used to label nucleic acids and mitochondria, respectively. Approximately 10,000 cells were counted by an Accuri C6 (Becton Dickinson, San Jose, CA, USA) and analyzed by FlowJo 5 software. Parasitemia was determined from the analysis of dot plots (side scatter versus fluorescence).
(§4) We determined the susceptibility of P. falciparum to the indole compounds and investigated whether CQR parasites responded differently to the compounds. […] We determined the IC50 values for each compound by analyzing viable and non-viable parasites after compound treatment, represented in dot plots (Figure 1H).

Cytotoxicity assay (MTT) = format: cell-based, human; conditions: human, HEK293T (HEK293) cells, 0.10-100 µM, read-out: CC50 ± SD HEK293
Procedure: HEK293T (human embryonic kidney) cells were cultured in 75 cm^2 vented tissue culture flasks (Greiner Bio-One, Frickenhausen, Germany) at 37 °C in a humidified atmosphere containing 5% CO2 in Dulbecco’s modified […] (Gibco) supplemented with 10% (v/v) fetal bovine serum (Gibco), 100 U/mL penicillin, and 100 μg/mL streptomycin (Sigma). Cytotoxicity was evaluated with the 4,5-dimethylthiazol-2-yl-2,5-diphenyltetrazolium bromide (MTT) cell proliferation assay. Briefly, 10^4 cells/well were seeded in flat-bottom 96-well plates in complete DMEM medium for 24 h, followed by incubation with different concentrations of each compound (0.10–100 µM) for 72 h. DMSO (0.13%) and digitonin were used as the negative and positive controls, respectively. The concentrations of DMSO chosen as control were the concentration present in the tested compounds (from 0.0001% to 0.12%, two-fold dilution). After 72 h, cells were then incubated with the MTT reagent for 3 h, and absorbance was measured at 570 nm using a FlexStation® 3 Multi-Mode Microplate Reader (Molecular Devices, Sunnyvale, CA, USA). Moreover, we calculated the selectivity indexes (SI) to understand whether the compounds were more toxic to parasites than cells, or vice versa, according to the ratio of the CC50 value to the IC50 value for each compound.
We further assessed the toxicity of 2-sulfenylindole compounds against HEK293 cells using the MTT assay with different concentrations of the compounds for 72 h. Table 1 presents all the toxicity data and summarizes the IC50 values of the compounds evaluated in this study for Dd2 and 3D7 strains.

[4] = system: Plasmodium falciparum Dd2 (chloroquine-resistant); assay: In vitro drug susceptibility assay, Dd2 strain (flow cytometry, SYBR Green I / MitoTracker Deep Red); format: cell-based; conditions: read-out: IC50 ± SD PfDd2
Procedure: as §2, §3, §4

P. falciparum 3D7 strain = assay: Blood-stage development evaluation by microscopy; format: cell-based, Plasmodium falciparum; conditions: ring-stage synchronized 3D7, treated at IC50 (30 µM for 20 and 28), monitored every 12 h
Procedure: Ring-stage parasites (10–14 h) at 1% parasitemia in 2% hematocrit were treated with compound 20 and compound 28 at concentrations of 1 and 30 µM in 24-well plates for 48 h. Treatment with chloroquine (20 nM) and DMSO (0.1%) was used as positive and negative controls. Smears were rapid stained (Panotico) every 12 h after treatment (12, 24, 36, 48, and 60 h time points), and we took images of parasites to assess the blood-stage development (Zeiss, Oberkochen, Germany).
During monitoring, parasites continued to develop throughout the cycle in the presence of both compounds. […] To examine its stage specificity, we monitored development every 12 h.
Figure 5 Parasitemia reduction with compound 20 (A) and compound 28 (B) to determine the stage activity. Data are means ± SD. Ring-stage synchronized parasites with sorbitol 5% were treated with chloroquine (20 nM), compound 20 (30 µM), and compound 28 (30 µM). The chosen treatment concentration was the IC50 values obtained for these compounds against the 3D7 parasites. (C) After drug administration, smears of P. falciparum 3D7 strain were taken at 0, 12, 24, 36, 48, and 60 h after drug administration, observing the growth development of treated parasites. * p ≤ 0.05, ** p ≤ 0.01, *** p ≤ 0.001.

[5] = Plasmodium falciparum, 3D7, 72 h, asynchronous parasites, 72 h, 0.1-100 µM
[6] = asynchronous parasites, 72 h, 0.1-100 µM
[7] = Plasmodium falciparum, DD2, 72 h, asynchronous parasites, 72 h, 0.1-100 µM
[8] = 500 nM compound + 100 nM melatonin

| SMILES | effect on parasitemia (in words) [1] | increase in parasitemia [1] | activity at 0.5 µM [1] | Parasitemia (%) Treatment with compound (500nM) + Melatonin (100nM) [2] | IC50 [3, 5] | IC50 [3, 6] | CC50 at 72 h (Cytotoxicity assay (MTT)) | IC50 [4, 7] | IC50 [4, 6] | decrease in parasitemia [1] | increase in parasitemia compared to control group ([2]; 500 nM compound + 100 nM melatonin, versus control group (100.7%)) | stage-specific effect on blood-stage development (P. falciparum 3D7 strain) | effect on melatonin action on parasitemia (in words) [2, 8] | IC50 ([3]; Plasmodium falciparum, 3D7, 72 h) | IC50 ([4]; Plasmodium falciparum, DD2, 72 h) |
| --- | --- | --- | --- | --- | --- | --- | --- | --- | --- | --- | --- | --- | --- | --- | --- |
| CCCCCCCCCCCCSc1[nH]c2cc(Cl)ccc2c1CC(=O)OC [Compound 21] | led to an increase in parasitemia | 3.8% | 104.4 ± 1% | 111.9 ± 2.78% | < 20 µM | 19.1 ± 1.78 µM | > 100 µM | < 20 µM | 16.9 ± 4.66 µM | – | – | – | – | – | – |
| COC(=O)Cc1c(Sc2cccc(O)c2)[nH]c2ccccc12 [Compound 7] | – | – | 96.5 ± 2.39% | 122.9 ± 5.60% | 58.2 ± 2.45 µM | – | 31.6 ± 4.03 µM | 55.4 ± 2.96 µM | – | 4.05% | 22.2% | – | – | – | – |
| c1ccc(Cc2c(Sc3ccccc3)[nH]c3ccccc23)cc1 [Compound 26] | – | – | 92.7 ± 4.17% | 110.4 ± 3.18% | < 20 µM | 13.5 ± 2.37 µM | 34.7 ± 8.44 µM | 35.8 ± 4.64 µM | – | 7.94% | – | reduced the progress from rings to trophozoites; also recorded: affect ring to trophozoite progression | – | – | – |
| COC(=O)Cc1c(Sc2ncccn2)[nH]c2ccccc12 [Compound 10] | – | – | 101 ± 2.14% | 130.2 ± 6.02% | 54.9 ± 2.25 µM | – | > 100 µM | 43.6 ± 3.06 µM | – | – | – | – | – | – | – |
| COC(=O)Cc1c(SCc2ccccc2)[nH]c2ccccc12 [Compound 14] | – | – | 97.8 ± 3.41% | 128.5 ± 4.13% | 20.9 ± 2.97 µM | – | 23.7 ± 8.54 µM | 37.1 ± 7.66 µM | – | – | – | – | – | – | – |
| CCSc1[nH]c2ccccc2c1CC(=O)OC [Compound 17] | did not affect parasitemia | – | 98.6 ± 2.95% | 123.6 ± 3.11% | 25 ± 2.9 µM | – | 26.5 ± 4.67 µM | 35.4 ± 1.56 µM | – | – | – | – | – | – | – |
| COC(=O)Cc1c(Sc2ccccc2C(=O)O)[nH]c2ccccc12 [Compound 8] | – | – | 102 ± 1.71% | 133.5 ± 8.06% | 37.3 ± 3.58 µM | – | > 100 µM | 43.3 ± 6.51 µM | – | – | – | – | – | – | – |
| COC(=O)Cc1c(Sc2ccccc2)[nH]c2ccccc12 [Compound 3] | no increase was observed | – | 98.2 ± 2.28% | 129.8 ± 6.78% | < 20 µM | 10.6 ± 5.19 µM | 15.2 ± 1.36 µM | < 20 µM | 18 ± 1.72 µM | – | – | reduced the progress from rings to trophozoites; also recorded: affect ring to trophozoite progression | slight increase in parasitemia | – | – |
| COC(=O)Cc1c(SC(C)(C)C)[nH]c2ccccc12 [Compound 16] | led to an increase in parasitemia | 11.2% | 112 ± 1.76% | 127.4 ± 4.10% | 31.7 ± 5.09 µM | – | 26.5 ± 8.7 µM | 48.5 ± 2.88 µM | – | – | – | – | – | – | – |
| COC(=O)Cc1c(SC23CC4CC(CC(C4)C2)C3)[nH]c2ccccc12 [Compound 18] | – | – | 98 ± 2.61% | 113.9 ± 2.90% | < 20 µM | 13.5 ± 3.24 µM | 16.8 ± 2.63 µM | < 20 µM | 15.7 ± 4.87 µM | – | – | reduced the progress from rings to trophozoites; also recorded: affect ring to trophozoite progression | – | – | – |
| CCN(CC)CCCC(C)Nc1ccnc2cc(Cl)ccc12 (stereo not shown) [Chloroquine, reference compound] | – | – | – | – | – | – | – | – | – | – | – | – | – | 0.0223 ± 0.00417 µM | 0.199 ± 0.0262 µM |
| COC(=O)Cc1c(SCCCCO)[nH]c2ccccc12 [Compound 19] | – | – | 100 ± 1.81% | 118.5 ± 2.85% | 27.8 ± 2.03 µM | – | 28.1 ± 5.46 µM | 39.9 ± 1.61 µM | – | – | – | – | – | – | – |
| COC(=O)Cc1c(Sc2ccccc2)[nH]c2ccc(OC)cc12 [Compound 25] | led to an increase in parasitemia | 6.6% | 107 ± 2.46% | 112.8 ± 2.93% | 26.5 ± 4.87 µM | – | 13.1 ± 3.74 µM | 45.5 ± 4.84 µM | – | – | – | – | did not potentiate or block the effect of melatonin on parasitemia | – | – |
